Source: ChEMBL document CHEMBL6078694, “Divergent Metabolism of Cyclo-l-Trp-l-Leu in Streptomyces albofaciens by Hydroxylation and Nucleobase Transfer with Two Cytochrome P450 Enzymes” (J Nat Prod, 2024)
Calls of active or inactive are those of the source.

Assays:
Format in all cases: functional, organism-based
Settings in all cases: time 16-20 hrs
[1] = tested on: Escherichia coli; experiment: Antibacterial activity against Escherichia coli ATCC 35218 assessed as reduction in bacterial growth measured after 16 to 20 hrs by agar disk diffusion method
[2] = tested on: Enterococcus faecalis; experiment: Antibacterial activity against Enterococcus faecalis DSM 2570 assessed as reduction in bacterial growth measured after 16 to 20 hrs by agar disk diffusion method
[3] = tested on: Klebsiella pneumoniae; experiment: Antibacterial activity against Klebsiella pneumoniae DSM 26371 assessed as reduction in bacterial growth measured after 16 to 20 hrs by agar disk diffusion method
[4] = tested on: Bacillus subtilis; experiment: Antibacterial activity against Bacillus subtilis NCLB3610 assessed as reduction in bacterial growth measured after 16 to 20 hrs by agar disk diffusion method
[5] = tested on: Niallia circulans; experiment: Antibacterial activity against Bacillus circulans NRRL B-380 assessed as reduction in bacterial growth measured after 16 to 20 hrs by agar disk diffusion method
[6] = tested on: Staphylococcus aureus; experiment: Antibacterial activity against Staphylococcus aureus ATCC29213 assessed as reduction in bacterial growth measured after 16 to 20 hrs by agar disk diffusion method
[7] = tested on: Staphylococcus delphini; experiment: Antibacterial activity against Staphylococcus delphini DSM 20771 assessed as reduction in bacterial growth measured after 16 to 20 hrs by agar disk diffusion method
[8] = tested on: Pseudomonas aeruginosa; experiment: Antibacterial activity against Pseudomonas aeruginosa ATCC 27853 assessed as reduction in bacterial growth measured after 16 to 20 hrs by agar disk diffusion method

Measured: Activity

CC(C)C[C@@H]1NC(=O)[C@@H]2C[C@]3(c4nc5c(=O)[nH]c(N)nc5[nH]4)c4ccccc4N[C@@H]3N2C1=O
inactive: all assays above

CC(C)C[C@@H]1NC(=O)[C@H]([C@@H](O)c2c[nH]c3ccccc23)NC1=O
inactive: all assays above
